{"source": "patent US12029762B2", "about": "“Alkalized organic pharmaceutical or nutraceutical composition” (priority 2009, dated 2024)", "test": "Strength, stamina and endurance of a training test subject", "assay_type": "in vivo, human", "description": "Test subject was administered L-Glutamine HCl (pH 6.0) for 30 days.\nTraining was three days per week, with 3 days of cardio. Dosage was 500 mg per day the first week and 1000 mg per day for week 2-4.\nTest subject was taken off the glutamine HCl (pH 6.0) and administered buffered-Glutamine (pH 12.0) for 30 days. Training was three days per week, with 3 days of cardio. Dosage was 500 mg per day for the 5th week and 1000 mg per day for weeks 6-8.", "data": [{"smiles": "Cl.NC(=O)CC[C@H](N)C(=O)O", "note": "[L-Glutamine HCl]", "values": [{"measurement": "changes to strength, stamina or endurance (in words)", "setting": "Week 1, 500 mg per day", "result": "No noticeable changes"}, {"measurement": "changes to strength, stamina or endurance (in words)", "setting": "Week 2-4, 1000 mg per day", "result": "No noticeable changes"}]}]}
